The nature of series [1]: Ethanol solubility of ionizable lipids. In kind it is physicochemical. The source says: AMG lipids for enhanced mRNA delivery and improved tolerability.
Series [2] concerns influenza A/Tasmania/503/2020 virus. Put plainly: Hemagglutination inhibition (HAI) assay, neutralizing antibody titers after HA mRNA vaccination. In kind it is in vivo, BALB/cJ mice. The settings on record: female BALB/cJ mice, dose-response vaccination. The protocol: To test this, a dose-response vaccination experiment ranging from […] was performed in female BALB/cJ mice. Neutralizing antibody titers were evaluated using the hemagglutination inhibition (HAI) assay. HAI titers are strongly correlated with vaccine protection and the assay is an FDA approved method for testing influenza vaccine efficacy^38,39 In agreement with the binding antibody titers, higher neutralizing […] were measured across all three tested doses: SM-102 only gave detectable neutralizing immunity at a 1 μg dose, while AMG1541 gave neutralizing immunity with as little was 10 ng of mRNA (FIG. 13H). Not only was AMG1541 able to generate neutralizing immunity at a very low dose, the binding and neutralizing antibody titers were equivalent in mice vaccinated with AMG1541 at a […] as those with SM-102 at a […] (FIG. 13H).
HAI Assay. HAI assays were performed by IBT bioservices. Viral titers were standardized by defining one HA unit as the amount of inactivated influenza A/Tasmania/503/2020 virus required to completely hemagglutinate an equal volume of 1% turkey red blood cells (TRBCs) (Lampire). Serum was heat inactivated at 56° C. then receptor destroying enzyme (RDE) (DENKA) was added to the serum and incubated at 37° C. for 20 hrs. RDE was then deactivated at 56° C. for 60 mins. Serum samples were then serially diluted in DPBS and 25 μL of diluted serum was added to a 96-well V bottom plate. Subsequently, four HA units of inactivated virus in 25 μL of DPBS were added to the diluted serum and incubated for 30 mins. at RT. 50 μL of a 1% (4×10^7 cells/mL) solution of turkey red blood cells (Lampire) was then added to the serum and virus mixture.

Another series has as its system mice. To be noted: FLuc expression in liver and spleen 6 hours after IM injection. The protocol:
Evaluation of the LNPs via intramuscular injection. The in vivo potency of the ionizable lipids was screened through intramuscular injection of LNPs loaded with mRNA encoding firefly luciferase protein. These LNPs were formulated with a molar composition of (35:16:46.5:2.5) using one of the synthesized ionizable lipids, DOPE as a helper lipid, cholesterol, and DMPE-PEG respectively. mRNA-loaded LNPs were intramuscularly administered in mice at a dose of 1 μg, and expression of luciferase protein was monitored at 6 hours via IVIS bioluminescent imaging (FIG. 3). […] Without wishing to be bound by theory, increased levels of protein expression may enhance the response to vaccination.
In Vitro and In Vivo Screening of AMG Lipid Library. Following synthesis, the mRNA delivery efficacy of the AMG lipids was evaluated through both in vitro and in vivo screens. To screen the first generation of AMG lipids (FIGS. 11B and 11C), firefly luciferase (FLuc) mRNA was encapsulated into LNPs using a previously reported formulation containing ionizable lipid, 1,2-dioleoyl-sn-glycero-3-phosphoethanolamine (DOPE), cholesterol, and 1,2-dimyristoyl-rac-glycero-3-methoxypolyethylene glycol-2000 (DMG-PEG).^19 C2C12 myoblast cells were treated with these LNPs and FLuc expression was evaluated at 24 hrs. (FIG. 16). […] Each of these batches was then injected IM into the quadriceps of mice, and expression was characterized via IVIS imaging (Screen 1, FIG. 11E).
AMG lipids for enhanced mRNA delivery and improved tolerability. A rational design approach was used to further vary the ionizable lipid structure to enhance the mRNA delivery and immunogenicity. […] The lipid tail structure was varied to promote efficient LNP self-assembly while simultaneously promoting endosomal membrane disruption.^18 Monounsaturated (G41-G44) or fully saturated (GC12-GC18) lipid tails were developed. […] Without wishing to be bound by any particular theory, tail length may impact membrane fusion and endosomal escape.^10,11
Next, the headgroup was further modified to further improve delivery. Headgroups play a multifunctional role including enhancing LNP-mRNA interactions, promoting membrane-LNP fusion and endosomal escape which all contribute to mRNA delivery.^23 A series of similar aza-crown ethers were used to further investigate structure-activity relationship and enhance mRNA delivery. These headgroups featured between three and eight nitrogens linked by varying length of methylene chains. Each of these headgroups were reacted with tail G41 to synthesize a next generation of AMG lipids, which were then formulated with FLuc mRNA and evaluated for mRNA delivery following IM administration in mice (FIG. 12B).

The conditions of series [3]: in vivo; cited from earlier work.

Here are results for 4 compounds from US20250205158A1, “BIODEGRADABLE LIPIDS AND FORMULATIONS FOR DELIVERY OF MRNA” (Massachusetts Institute of Technology, priority 2023, published 2025).

On to `CCCCCCCCCCCCCC(=O)OCC(O)CN1CCCN(CC(O)COC(=O)CCCCCCCCCCCCC)CCN(CC(O)COC(=O)CCCCCCCCCCCCC)CCCN(CC(O)COC(=O)CCCCCCCCCCCCC)CC1` (mixture of isomers) [AMG10C14], for which the ethanol solubility entry in series [1] was “poor ethanol solubility”.

Take `CCCCCCCCCCCCCCCC(=O)OCC(O)CN1CCCN(CC(O)COC(=O)CCCCCCCCCCCCCCC)CCN(CC(O)COC(=O)CCCCCCCCCCCCCCC)CCCN(CC(O)COC(=O)CCCCCCCCCCCCCCC)CC1` (mixture of isomers) [AMG10C16]: the ethanol solubility result in series [1] is listed as “poor ethanol solubility”. Still for that read-out and setting: the result for `CCCCCCCCCCCCCCCCCC(=O)OCC(O)CN1CCCN(CC(O)COC(=O)CCCCCCCCCCCCCCCCC)CCN(CC(O)COC(=O)CCCCCCCCCCCCCCCCC)CCCN(CC(O)COC(=O)CCCCCCCCCCCCCCCCC)CC1` (mixture of isomers) [AMG10C18] reads “poor ethanol solubility”. Consider `CCCCCCCCCCCOC(=O)CCCCCN(CCO)CCCCCCCC(=O)OC(CCCCCCCC)CCCCCCCC` [SM-102, reference compound], for which the “dose giving detectable neutralizing immunity” value in series [2] was determined as 1 µg. In addition, the “fold higher mRNA transfection in the liver and spleen compared to AMG1541” value in the series on mice is around 100 fold. In series [3], the “time SM-102 remained detectable at the injection site” value was “at least 48 hours”; the “time SM-102 remained detectable in the liver and spleen” value is recorded as “at least 10 hours”.
